Converted amounts (≈) assume the structure as drawn. Non-standard residues stand in square brackets, D forms with d. Residues, ends and D or L forms follow the SMILES beside them. No end group written: not given here.
Tests used:
[1] = system: P. aeruginosa PAO1; assay: microbe, parasite or virus in culture; settings: for MIC P. aeruginosa, 12.5% MHB / MIC P. aeruginosa, Full MHB: P. aeruginosa PAO1, 16–20 h at 37 °C; for MIC P. aeruginosa, 12.5% MHB: 12.5% Müller–Hinton medium; for MIC P. aeruginosa, Full MHB: full Müller–Hinton medium; for MIC P. aeruginosa PAO1: supplement CSV
Description: (§1) We tested antibacterial effects against the Gram-negative bacteria Escherichia coli, Klebsiella pneumoniae, Pseudomonas aeruginosa, and Acinetobacter baumannii and the Gram-positive methicillin-resistant Staphylococcus aureus (MRSA).
(§2) Bacterial growth assay (Figure S1), transmission electron microscopy (Figure S6), serum stability assay (Figure S7), circular dichroism spectral recording (Figures S8 and S9), antimicrobial and hemolysis activity assays (MIC and MHC), and vesicle leakage assay were carried out as described in earlier publications.[43],[44]
(§3) Minimum inhibitory concentration assay
(§4) Antimicrobial activity was assayed against P. aeruginosa PAO1, K. pneumoniae NCTC418, E. coli W3110, A. baumannii ATCC 19606, methicillin-resistant S. aureus COL (MRSA), and for selected peptides on P. aeruginosa PA14 and the polymyxin-B-resistant derivative PA14 2P4, as well as the clinical isolates ZEM-1A and ZEM9A, K. pneumoniae OXA-48, S. aureus Newman, Enterobacter cloacae and Burkholderia cenocepacia. The minimal inhibitory concentration (MIC) was determined by using broth microdilution method. A colo ny of bacteria was picked and grown in Luria-Bertani (LB) medium overnight at 37°C. For E. coli BW25113 sbmA::kan the medium was supplemented with 25 mg/L of kanamycin. The next day, the culture was then regrown in LB medium to log phase (OD600 = 0.6 to 0.8), which lasted approximately 4 h, and diluted to an OD600 of 0.022 in the desired medium. Stock solutions of 1 mg/mL of the samples were prepared in sterilized milliQ water and diluted to the beginning concentration of 64 μg/mL in 300 μL Mueller Hinton (MH)-medium. The diluted samples were added to first well of 96-well microtiter plate (TPP, untreated, Faust Laborbedarf, AG, Schaffhausen) and diluted serially by ½. Finally, 4 μL of the bacterial suspension was inoculated into the sample solutions (150 μL/well) with a final inoculation of about 5∙10^5 CFU/mL. The plates were then incubated at 37°C for 15-18h. For each assay, sterility (broth only) and growth control (broth with bacterial inoculum, without antibiotics) were checked with two columns in the plate. The next day, 15 μL of 3-(4,5-dimethylthiazol-2-yl)-2,5-diphenyltetrazolium bromide (MTT) was added to each well of the plate, such a way that MIC was defined as the lowest concentration of the peptide that inhibited visible growth of the tested

[2] = system: K. pneumoniae NCTC 418; assay: microbe, parasite or virus in culture; settings: for MIC K. pneumoniae, 12.5% MHB / MIC K. pneumoniae, Full MHB: K. pneumoniae NCTC 418, 16–20 h at 37 °C; for MIC K. pneumoniae, 12.5% MHB: 12.5% Müller–Hinton medium; for MIC K. pneumoniae, Full MHB: full Müller–Hinton medium; for MIC K. pneumoniae NCTC418: supplement CSV
Description: as §1, §2, §3, §4

[3] = system: E. coli W3110; assay: microbe, parasite or virus in culture; settings: for MIC E. coli, 12.5% MHB / MIC E. coli, Full MHB: E. coli W3110, 16–20 h at 37 °C, broth microdilution; for MIC E. coli, 12.5% MHB: 12.5% Müller–Hinton medium; for MIC E. coli, Full MHB: full Müller–Hinton medium; for MIC E. coli W3110: supplement CSV
Description: as §1, §2, §3, §4

[4] = system: A. baumannii ATCC19606; assay: microbe, parasite or virus in culture; settings: for MIC A. baumannii, 12.5% MHB / MIC A. baumannii, Full MHB: A. baumannii ATCC19606, 16–20 h at 37 °C; for MIC A. baumannii, 12.5% MHB: 12.5% Müller–Hinton medium; for MIC A. baumannii, Full MHB: full Müller–Hinton medium; for MIC A. baumannii ATCC19606: supplement CSV
Description: as §1, §2, §3, §4

[5] = system: S. aureus COL (MRSA); assay: microbe, parasite or virus in culture; settings: for MIC S. aureus, 12.5% MHB / MIC S. aureus, Full MHB: S. aureus COL (MRSA), 16–20 h at 37 °C; for MIC S. aureus, 12.5% MHB: 12.5% Müller–Hinton medium; for MIC S. aureus, Full MHB: full Müller–Hinton medium; for MIC S. aureus COL (MRSA): supplement CSV
Description: as §1, §2, §3, §4

[6] = system: human red blood cells; assay: Hemolysis assay, minimum hemolytic concentration; settings: for Haemolysis on hRBC, MHC: 2.5% human red blood cells (final) in 10 mM phosphate, 150 mM NaCl, pH 7.4, 25 °C, 4 h, visual inspection; for MHC human red blood cells: supplement CSV

| Compound | MIC P. aeruginosa, 12.5% MHB [1] [µg/mL] | MIC P. aeruginosa, Full MHB [1] [µg/mL] | MIC P. aeruginosa PAO1 ([1]; 12.5% MH pH 7.4) [µg/mL] | MIC P. aeruginosa PAO1 ([1]; full MH pH 7.4) [µg/mL] | MIC K. pneumoniae, 12.5% MHB [2] [µg/mL] | MIC K. pneumoniae, Full MHB [2] [µg/mL] | MIC K. pneumoniae NCTC418 ([2]; 12.5% MH pH 7.4) [µg/mL] | MIC K. pneumoniae NCTC418 ([2]; full MH pH 7.4) [µg/mL] | MIC E. coli, 12.5% MHB [3] [µg/mL] | MIC E. coli, Full MHB [3] [µg/mL] | MIC E. coli W3110 ([3]; 12.5% MH pH 7.4) [µg/mL] | MIC E. coli W3110 ([3]; full MH pH 7.4) [µg/mL] | MIC A. baumannii, 12.5% MHB [4] [µg/mL] | MIC A. baumannii, Full MHB [4] [µg/mL] | MIC A. baumannii ATCC19606 ([4]; 12.5% MH pH 7.4) [µg/mL] | MIC A. baumannii ATCC19606 ([4]; full MH pH 7.4) [µg/mL] | MIC S. aureus, 12.5% MHB [5] | MIC S. aureus, Full MHB [5] | MIC S. aureus COL (MRSA) ([5]; 12.5% MH pH 7.4) [µg/mL] | MIC S. aureus COL (MRSA) ([5]; full MH pH 7.4) [µg/mL] | other results |
| --- | --- | --- | --- | --- | --- | --- | --- | --- | --- | --- | --- | --- | --- | --- | --- | --- | --- | --- | --- | --- | --- |
| VDKPPYLPRPRPPRRIYNR [sr10Cterm-Onc] (VDKPPYLPRPRPPRRIYNR-NH2; also: residues 10-19 stereorandomized (1:1 L/D mixture)) | 8 | 64 | 8 | 64 | 4 | 8 | 4 | 8 | 4 | 16 | 4 | 16 | 4 | 64 | 4 | 64 | 32 µg/mL | > 64 µg/mL | 32 | >64 | Haemolysis on hRBC, MHC [6]: >1000 µg/mL; MHC human red blood cells [6]: >1000 µg/mL |
| VDKPPYLPRPRPPRRIYNR [sr11Cterm-Onc] (VDKPPYLPRPRPPRRIYNR-NH2; also: residues 9-19 stereorandomized (1:1 L/D mixture)) | 8 | > 64 | 8 | >64 | 4 | 16 | 4 | 16 | 4 | 16 | 4 | 16 | 4 | 32 | 4 | 32 | >64 / 64 μg/mL | >64 / 64 μg/mL | 64 | >64 | Haemolysis on hRBC, MHC [6]: >1000 µg/mL; MHC human red blood cells [6]: >1000 µg/mL |
| VDKPPYLPRPRPPRRIYNR [sr7Cterm-Onc] (VDKPPYLPRPRPPRRIYNR-NH2; also: residues 13-19 stereorandomized (1:1 L/D mixture)) | 4 | 64 | 4 | 64 | 1 | 4 | 1 | 4 | 1 | 8 | 1 | 8 | 4 | 32 | 4 | 32 | > 16 µg/mL | > 64 µg/mL | >16 | >64 | Haemolysis on hRBC, MHC [6]: >1000 µg/mL; MHC human red blood cells [6]: >1000 µg/mL |
| CC[C@@H](C)[C@@H](NC(=O)[C@@H](CCCNC(=N)N)NC(=O)[C@@H](CCCNC(=N)N)NC(=O)[C@H]1CCCN1C(=O)[C@H]1CCCN1C(=O)[C@@H](CCCNC(=N)N)NC(=O)[C@@H]1CCCN1C(=O)[C@H](CCCNC(=N)N)NC(=O)[C@@H]1CCCN1C(=O)[C@H](CC(C)C)NC(=O)[C@H](Cc1ccc(O)cc1)NC(=O)[C@@H]1CCCN1C(=O)[C@@H]1CCCN1C(=O)[C@H](CCCCN)NC(=O)[C@H](CC(=O)O)NC(=O)[C@@H](N)C(C)C)C(=O)N[C@H](Cc1ccc(O)cc1)C(=O)N[C@H](CC(N)=O)C(=O)N[C@H](CCCNC(=N)N)C(N)=O [D9Cterm-Onc] (H-VDKPPYLPRP[dR][dP][dP][dR][dR][dI][dY][dN][dR]-NH2) | 4 (≈ 1.67 µM) | 64 (≈ 26.8 µM) | 4 (≈ 1.67 µM) | 64 (≈ 26.8 µM) | 2 (≈ 0.837 µM) | 4 (≈ 1.67 µM) | 2 (≈ 0.837 µM) | 4 (≈ 1.67 µM) | 2 (≈ 0.837 µM) | 4 (≈ 1.67 µM) | 2 (≈ 0.837 µM) | 4 (≈ 1.67 µM) | 4 (≈ 1.67 µM) | 16 (≈ 6.69 µM) | 4 (≈ 1.67 µM) | 16 (≈ 6.69 µM) | >64 / >64 μg/mL | >64 / >64 μg/mL | >64 | >64 | Haemolysis on hRBC, MHC [6]: >1000 µg/mL; MHC human red blood cells [6]: >1000 µg/mL |
| CC[C@H](C)[C@H](NC(=O)[C@H](CCCNC(=N)N)NC(=O)[C@H](CCCNC(=N)N)NC(=O)[C@@H]1CCCN1C(=O)[C@@H]1CCCN1C(=O)[C@H](CCCNC(=N)N)NC(=O)[C@@H]1CCCN1C(=O)[C@H](CCCNC(=N)N)NC(=O)[C@@H]1CCCN1C(=O)[C@H](CC(C)C)NC(=O)[C@@H](Cc1ccc(O)cc1)NC(=O)[C@@H]1CCCN1C(=O)[C@@H]1CCCN1C(=O)[C@H](CCCCN)NC(=O)[C@H](CC(=O)O)NC(=O)[C@@H](N)C(C)C)C(=O)N[C@@H](Cc1ccc(O)cc1)C(=O)N[C@@H](CC(N)=O)C(=O)N[C@@H](CCCNC(=N)N)C(N)=O [DY6-Onc] (H-VDKPP[dY]LPRPRPPRRIYNR-NH2) | 16 (≈ 6.69 µM) | > 64 | 16 (≈ 6.69 µM) | >64 | 4 (≈ 1.67 µM) | 8 (≈ 3.35 µM) | 4 (≈ 1.67 µM) | 8 (≈ 3.35 µM) | 4 (≈ 1.67 µM) | 16 (≈ 6.69 µM) | 4 (≈ 1.67 µM) | 16 (≈ 6.69 µM) | 16 (≈ 6.69 µM) | > 64 | 16 (≈ 6.69 µM) | >64 | >64 / 64 μg/mL | >64 / 64 μg/mL | 64 (≈ 26.8 µM) | >64 | Haemolysis on hRBC, MHC [6]: >1000 µg/mL; MHC human red blood cells [6]: >1000 µg/mL |
| VDKPPYLPRPRPPRRIYNR [sr12Cterm-Onc] (VDKPPYLPRPRPPRRIYNR-NH2; also: residues 8-19 stereorandomized (1:1 L/D mixture)) | 8 | > 64 | 8 | >64 | 8 | 16 | 8 | 16 | 8 | 16 | 8 | 16 | 8 | 32 | 8 | 32 | >64 / 64 μg/mL | >64 / 64 μg/mL | 64 | >64 | Haemolysis on hRBC, MHC [6]: >1000 µg/mL; MHC human red blood cells [6]: >1000 µg/mL |
